Experiments:
SK-MEL-2 cells = experiment: Growth inhibition assay (cell counts over 72 h); assay type: cell-based, human; conditions: for inhibition at 0.05 µM / inhibition at 0.1 µM / inhibition at 0.2 µM / inhibition at 0.5 µM / inhibition at 1 µM: Homo sapiens; for inhibition at 0.05 µM: 50 nM; for inhibition at 0.1 µM: 100 nM; for inhibition at 0.2 µM: 200 nM; for inhibition at 0.5 µM: 500 nM
Procedure: For the growth inhibition assays, the PCS-200-013 cells or SK-MEL-2 cells were seeded at 40,000 cells/well into 6-well-plates and treated with the respective inhibitor. Cells in each well were counted after 24 h from the time of treating with the inhibitor at the desired concentration. Each inhibitor had triplicate plates which were counted at 24th, 48th and 72nd hours after initiating the inhibitor treatment. Inhibitors were added after 24 h of seeding point. The inhibitor concentrations were none (control), 50 nM, 100 nM, 200 nM, 500 nM and 1 μM. The cells were counted using a hemocytometer. The same procedure was followed for inhibitors ICA-1, ACPD, 3,4-diamino-2,7-naphthalenedisulfonic acid DNDA and 8-hydroxy-1, 3,6-naphthalenetrisulfonic acid (ζ-Stat).
Cell growth of malignant melanoma cells was reduced by applying PKC-ι and PKC-ζ inhibitors (FIGS. 3A-3D and 4A-4B). Both PKC-ι, and PKC-ζ heavily contributed to the migration of metastasized melanoma cells and migration can be suppressed using ICA-1 and ACPD. For example, Tables 1-2 provide a summary of the percentage inhibition of growth of SK-MEL-2 cells (Table 1 for ICA-1 and Table 2 for ACPD) as a function of time over 72 h period. Both ACPD and ICA-1 have 40% effectiveness on cell proliferation inhibition at the highest concentration used. Inhibition is increased upon increasing the concentration.

PKC-ζ = molecular target: T1, PKC-ζ (Homo sapiens, UniProt Q05513); conditions: at 10 μM; cited from earlier work
T1 sequence (Q05513 1-592): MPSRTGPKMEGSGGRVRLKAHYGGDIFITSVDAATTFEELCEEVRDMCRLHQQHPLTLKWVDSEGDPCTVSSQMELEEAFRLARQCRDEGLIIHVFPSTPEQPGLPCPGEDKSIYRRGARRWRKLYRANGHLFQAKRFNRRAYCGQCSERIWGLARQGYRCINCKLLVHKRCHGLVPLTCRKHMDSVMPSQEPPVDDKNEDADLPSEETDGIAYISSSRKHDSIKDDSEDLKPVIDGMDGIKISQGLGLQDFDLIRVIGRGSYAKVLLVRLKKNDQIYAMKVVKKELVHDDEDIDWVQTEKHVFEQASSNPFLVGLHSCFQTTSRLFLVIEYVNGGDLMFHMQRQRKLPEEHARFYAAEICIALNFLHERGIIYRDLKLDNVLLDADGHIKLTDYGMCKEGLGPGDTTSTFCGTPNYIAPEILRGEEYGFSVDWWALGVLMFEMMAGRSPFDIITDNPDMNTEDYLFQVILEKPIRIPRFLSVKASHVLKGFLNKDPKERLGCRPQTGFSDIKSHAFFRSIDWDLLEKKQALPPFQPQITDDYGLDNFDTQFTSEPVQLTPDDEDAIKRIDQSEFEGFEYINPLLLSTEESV

PKC-ι = molecular target: T2, PKC-ι (Homo sapiens, UniProt P41743); design: dose or concentration left out as unconfirmed; conditions: cited from earlier work
T2 sequence (P41743 1-596): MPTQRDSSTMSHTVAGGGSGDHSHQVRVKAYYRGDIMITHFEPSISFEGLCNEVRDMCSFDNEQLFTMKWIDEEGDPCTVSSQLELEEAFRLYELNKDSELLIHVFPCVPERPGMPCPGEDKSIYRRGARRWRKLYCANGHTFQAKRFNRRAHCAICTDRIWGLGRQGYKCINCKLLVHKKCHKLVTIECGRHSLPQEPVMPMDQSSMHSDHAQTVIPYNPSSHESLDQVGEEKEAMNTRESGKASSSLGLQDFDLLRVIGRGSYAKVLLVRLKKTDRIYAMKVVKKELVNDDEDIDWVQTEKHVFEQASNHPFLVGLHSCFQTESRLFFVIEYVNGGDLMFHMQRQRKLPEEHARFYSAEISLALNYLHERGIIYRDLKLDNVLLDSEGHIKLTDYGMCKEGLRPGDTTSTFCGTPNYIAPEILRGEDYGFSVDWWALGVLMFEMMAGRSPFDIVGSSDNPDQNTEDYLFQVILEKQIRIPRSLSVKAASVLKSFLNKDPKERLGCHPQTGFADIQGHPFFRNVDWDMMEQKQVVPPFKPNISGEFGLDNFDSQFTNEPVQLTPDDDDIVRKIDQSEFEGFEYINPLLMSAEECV

other PKC isoforms = conditions: cited from earlier work
[1] = system: MAPK, Akt2, FGFR 1/2/3/4, mTOR, GSK3B, IRAK1/4, JAK 1/2, MEK1, ERK1/2, JNK 1/2, PKA, Src, ROCK2 and PI3K; conditions: cited from earlier work
[2] = system: malignant melanoma cells (SK-MEL-2 and MeWo); experiment: WST-1 assay, ζ-Stat; assay type: cell-based, human; conditions: 2.5 μM
Procedure: Approximately 4×10^3 cells (PCS-200-013, SK-MEL-2 and MeWo) were cultured in a 96 well plate. […] This IC50 was obtained based on the cell viability counts in the previous experiments. Additional doses of sterile water or inhibitor were supplied every 24 h during 3 day incubation period. At the end of 3 day treatment, media were removed and fresh media (100 μL) were added with 4-[3-(4-iodophenyl)-2-(4-nitropheny))-2H-5-tetrazolio]-1,3-benzene disulfonate (WST-1) reagent (10 μL) to each well. The absorbance was measured at 450 nm for every 0.5 hour up to 3 hours using the Synergy HT microplate reader from Biotek (Winooski, Vt.).
Cell proliferation was measured using WST-1 assay for SK-MEL-2 (FIG. 16A) and MeWo (FIG. 16b). Absorbance at 450 nm due to production of water soluble formazan was measured as a function of time and the absorbance is directly proportional to the number of cells. The experimental concentration for ζ-Stat was 2.5 μM. N=3 experiments were performed for each cell line and mean±SD are plotted.

CC(=O)C1=C(O)CCC1=O [ACPD, 2-acetyl-1,3-cyclopentanedione]
inhibition at 0.05 µM (SK-MEL-2 cells; SK-MEL-2, 24 h, Day 1): 1%
inhibition at 0.1 µM (SK-MEL-2 cells; SK-MEL-2, 24 h, Day 1): 11%
inhibition at 0.2 µM (SK-MEL-2 cells; SK-MEL-2, 24 h, Day 1): 19%
inhibition at 0.5 µM (SK-MEL-2 cells; SK-MEL-2, 24 h, Day 1): 26%
inhibition at 1 µM (SK-MEL-2 cells; SK-MEL-2, 24 h, Day 1): 36%
inhibition at 0.05 µM (SK-MEL-2 cells; SK-MEL-2, 48 h, Day 2): 4%
inhibition at 0.1 µM (SK-MEL-2 cells; SK-MEL-2, 48 h, Day 2): 10%
inhibition at 0.2 µM (SK-MEL-2 cells; SK-MEL-2, 48 h, Day 2): 23%
inhibition at 0.5 µM (SK-MEL-2 cells; SK-MEL-2, 48 h, Day 2): 30%
inhibition at 1 µM (SK-MEL-2 cells; SK-MEL-2, 48 h, Day 2): 35%
inhibition at 0.05 µM (SK-MEL-2 cells; SK-MEL-2, 72 h, Day 3): 5%
inhibition at 0.1 µM (SK-MEL-2 cells; SK-MEL-2, 72 h, Day 3): 9%
inhibition at 0.2 µM (SK-MEL-2 cells; SK-MEL-2, 72 h, Day 3): 20%
inhibition at 0.5 µM (SK-MEL-2 cells; SK-MEL-2, 72 h, Day 3): 26%
inhibition at 1 µM (SK-MEL-2 cells; SK-MEL-2, 72 h, Day 3): 37%
effectiveness on cell proliferation inhibition (SK-MEL-2 cells; at the highest concentration used): 40%
inhibition of PKC-ζ (PKC-ζ): about 60%
inhibition of PKC-ι (PKC-ι): approximately 40%
effect on other PKC isoforms (other PKC isoforms): without affecting
inhibition of other kinases [1]: does not inhibit

O=S(=O)(O)c1cc(O)c2c(S(=O)(=O)O)cc(S(=O)(=O)O)cc2c1 [ζ-Stat, 8-hydroxy-1,3,6-naphthalenetrisulfonic acid]
toxicity according to the WST-1 assay [2]: did not show toxicity
